The subject of this assay is batrachotoxin (BTX) binding site of the sodium channel. Put plainly: Affinity for the batrachotoxin (BTX) binding site of the sodium channel ([3H]-Batrachotoxinin A20 benzoate, rat cerebrocortex synaptosomes). The note with it: [3H]-Batrachotoxinin A20 benzoate 10 nM, test concentration not given.
In turn, `CCOc1ccccc1C(=O)Nc1ncc2c(n1)CCN(S(=O)(=O)c1ccccc1C(=O)OC)C2` [Example 82, 2-[2-(2-ethoxy-benzoylamino)-7,8-dihydro-5H-pyrido[4,3-d]pyrimidine-6-sulfonyl]-benzoic acid methyl ester] yielded a BTX inhibition of 38.
The result for `O=C(Nc1ncc2c(n1)CCN(S(=O)(=O)c1cccs1)C2)c1ccc(F)c(F)c1` [Example 72, 3,4-difluoro-N-[6-(thiophene-2-sulfonyl)-5,6,7,8-tetrahydro-pyrido[4,3-d]pyrimidin-2-yl]-benzamide] reads 31.
`O=C(Nc1ncc2c(n1)CCN(C(=O)CCCCc1ccccc1)C2)c1ccccc1` [Example 190, N-[6-(5-phenyl-pentanoyl)-5,6,7,8-tetrahydro-pyrido[4,3-d]pyrimidin-2-yl]-benzamide] gave a BTX inhibition of 56.
For the molecule `CCCC(=O)Nc1ncc2c(n1)CCC(NC(=O)C=Cc1cccc(C(F)(F)F)c1)C2` (stereo not shown) [Example 168, N-(2-butyrylamino-5,6,7,8-tetrahydro-quinazolin-6-yl)-3-(3-trifluoromethyl-phenyl)-acrylamide], the BTX inhibition was 39.
The same measure for `O=C(Nc1ncc2c(n1)CCN(C(=O)c1ccc3ccccc3c1)C2)c1ccc(Cl)cc1` [Example 69]: 64.
As to `Cc1ccc(C(=O)Nc2ncc3c(n2)CCN(C(=O)COc2cccc(Cl)c2)C3)cc1` [Example 189, N-{6-[2-(3-chloro-phenoxy)-acetyl]-5,6,7,8-tetrahydro-pyrido[4,3-d]pyrimidin-2-yl}-4-methyl-benzamide], the BTX inhibition is recorded as 55.
The same measure for `COc1cccc(C(=O)Nc2ncc3c(n2)CCN(S(=O)(=O)c2cc(Br)ccc2OC)C3)c1` [Example 129, N-[6-(5-bromo-2-methoxy-benzenesulfonyl)-5,6,7,8-tetrahydro-pyrido[4,3-d]pyrimidin-2-yl]-3-methoxy-benzamide]: 76; for `CCc1ccc(C(=O)Nc2ncc3c(n2)CCN(S(=O)(=O)c2ccc4c(c2)CN(C(=O)C(F)(F)F)CC4)C3)cc1` [Example 157, 4-ethyl-N-{6-[2-(2,2,2-trifluoro-acetyl)-1,2,3,4-tetrahydro-isoquinoline-7-sulfonyl]-5,6,7,8-tetrahydro-pyrido[4,3-d]pyrimidin-2-yl}-benzamide]: 63; for `Cc1ccc(C)c(CC(=O)NC2CCc3nc(NC(=O)c4ccc(F)cc4)ncc3C2)c1` (stereo not shown) [Example 163, N-{6-[2-(2,5-dimethyl-phenyl)-acetylamino]-5,6,7,8-tetrahydro-quinazolin-2-yl}-4-fluoro-benzamide]: 28.
Take `Cc1ccc(C(=O)N2CCc3nc(NC(=O)c4ccc(C(C)(C)C)cc4)ncc3C2)cc1[N+](=O)[O-]` [Example 92, 4-tert-butyl-N-[6-(4-methyl-3-nitro-benzoyl)-5,6,7,8-tetrahydro-pyrido[4,3-d]pyrimidin-2-yl]-benzamide]: the BTX inhibition is 75.
`O=C(CCc1ccccc1)NC1CCc2nc(NC(=O)c3ccc(F)cc3)ncc2C1` (stereo not shown) [Example 94, 4-fluoro-N-[6-(3-phenyl-propionylamino)-5,6,7,8-tetrahydro-quinazolin-2-yl]-benzamide]: the BTX inhibition amounted to 47.
Molecule `O=C(Nc1ncc2c(n1)CCN(C(=O)C1=Cc3ccccc3OC1)C2)c1ccc(F)c(F)c1` [Example 175, N-[6-(2H-chromene-3-carbonyl)-5,6,7,8-tetrahydro-pyrido[4,3-d]pyrimidin-2-yl]-3,4-difluoro-benzamide] displayed a BTX inhibition of 49.
For the molecule `Cc1oc(-c2ccccc2)cc1C(=O)N1CCc2nc(NC(=O)c3ccccc3F)ncc2C1` [Example 137, 2-fluoro-N-[6-(2-methyl-5-phenyl-furan-3-carbonyl)-5,6,7,8-tetrahydro-pyrido[4,3-d]pyrimidin-2-yl]-benzamide], the BTX inhibition was determined as 43.
For `COc1cccc(C(=O)Nc2ncc3c(n2)CCN(C(=O)c2cccc(OC(F)(F)F)c2)C3)c1` [Example 199, 3-methoxy-N-[6-(3-trifluoromethoxy-benzoyl)-5,6,7,8-tetrahydro-pyrido[4,3-d]pyrimidin-2-yl]-benzamide], the BTX inhibition stood at 48.
The result for `O=C(Nc1ncc2c(n1)CCN(C(=O)c1sc3ccccc3c1Cl)C2)c1cccs1` [Example 110, thiophene-2-carboxylic acid [6-(3-chloro-benzo[b]thiophene-2-carbonyl)-5,6,7,8-tetrahydro-pyrido[4,3-d]pyrimidin-2-yl]-amide] reads 40; that for `O=C(Nc1ncc2c(n1)CCC(NS(=O)(=O)c1ccc3c(c1)CN(C(=O)C(F)(F)F)CC3)C2)c1cccs1` (stereo not shown) [Example 147, thiophene-2-carboxylic acid {6-[2-(2,2,2-trifluoro-acetyl)-1,2,3,4-tetrahydro-isoquinoline-7-sulfonylamino]-5,6,7,8-tetrahydro-quinazolin-2-yl}-amide], 48.
The same measure for `Cc1cccc(C(=O)Nc2ncc3c(n2)CCN(S(=O)(=O)c2cccc(C)c2)C3)c1` [Example 116, 3-methyl-N-[6-(toluene-3-sulfonyl)-5,6,7,8-tetrahydro-pyrido[4,3-d]pyrimidin-2-yl]-benzamide]: 53.
The same measure for `O=C(Nc1ncc2c(n1)CCN(C(=O)CCC1CCCC1)C2)c1ccncc1` [Example 132, N-[6-(3-cyclopentyl-propionyl)-5,6,7,8-tetrahydro-pyrido[4,3-d]pyrimidin-2-yl]-isonicotinamide]: 72; for `Cc1cccc(C(=O)Nc2ncc3c(n2)CCN(S(=O)(=O)c2sc(C)nc2C)C3)c1` [Example 68, N-[6-(2,4-dimethyl-thiazole-5-sulfonyl)-5,6,7,8-tetrahydro-pyrido[4,3-d]pyrimidin-2-yl]-3-methyl-benzamide]: 35.
Consider `Cc1ccc(S(=O)(=O)N2CCc3nc(NC(=O)c4cccc(F)c4)ncc3C2)cc1` [Example 143, 3-fluoro-N-[6-(toluene-4-sulfonyl)-5,6,7,8-tetrahydro-pyrido[4,3-d]pyrimidin-2-yl]-benzamide], for which the BTX inhibition was determined as 61.
On to `O=C(Nc1ncc2c(n1)CCN(S(=O)(=O)c1ccc(Cl)s1)C2)c1cccc2ccccc12` [Example 117, naphthalene-1-carboxylic acid [6-(5-chloro-thiophene-2-sulfonyl)-5,6,7,8-tetrahydro-pyrido[4,3-d]pyrimidin-2-yl]-amide], for which the BTX inhibition is listed as 37.
With `CCc1ccc(C(=O)Nc2ncc3c(n2)CCN(C(=O)c2ccc(Cl)c(Cl)c2)C3)cc1` [Example 101, N-[6-(3,4-dichloro-benzoyl)-5,6,7,8-tetrahydro-pyrido[4,3-d]pyrimidin-2-yl]-4-ethyl-benzamide], the BTX inhibition was 68.
The same measure for `Cc1cc(C)c(S(=O)(=O)N2CCc3nc(NC(=O)c4ccc(Cl)c(Cl)c4)ncc3C2)c(C)c1` [Example 95, 3,4-dichloro-N-[6-(2,4,6-trimethyl-benzenesulfonyl)-5,6,7,8-tetrahydro-pyrido[4,3-d]pyrimidin-2-yl]-benzamide]: 77.
The molecule `O=C(Nc1ncc2c(n1)CCN(S(=O)(=O)c1ccc(OC(F)(F)F)cc1)C2)c1ccc(Cl)c(Cl)c1` [Example 134, 3,4-dichloro-N-[6-(4-trifluoromethoxy-benzenesulfonyl)-5,6,7,8-tetrahydro-pyrido[4,3-d]pyrimidin-2-yl]-benzamide] yielded a BTX inhibition of 64.
The result for `CCc1ccc(C(=O)Nc2ncc3c(n2)CCN(S(=O)(=O)c2ccsc2)C3)cc1` [Example 121, 4-ethyl-N-[6-(thiophene-3-sulfonyl)-5,6,7,8-tetrahydro-pyrido[4,3-d]pyrimidin-2-yl]-benzamide] reads 57; that for `CC(C)(C)c1ccc(C(=O)Nc2ncc3c(n2)CCN(C(=O)c2csc4ccccc24)C3)cc1` [Example 184, N-[6-(benzo[b]thiophene-3-carbonyl)-5,6,7,8-tetrahydro-pyrido[4,3-d]pyrimidin-2-yl]-4-tert-butyl-benzamide], 87; that for `O=C(Nc1ncc2c(n1)CCN(C(=O)c1cccc(F)c1)C2)c1cccc2ccccc12` [Example 183, naphthalene-1-carboxylic acid [6-(3-fluoro-benzoyl)-5,6,7,8-tetrahydro-pyrido[4,3-d]pyrimidin-2-yl]-amide], 31.
The result for `Cc1ccc(C(=O)Nc2ncc3c(n2)CCN(C(=O)c2ccc(SC(F)(F)F)cc2)C3)cc1` [Example 148, 4-methyl-N-[6-(4-trifluoromethylsulfanyl-benzoyl)-5,6,7,8-tetrahydro-pyrido[4,3-d]pyrimidin-2-yl]-benzamide] reads 85; that for `O=C(Nc1ncc2c(n1)CCN(C(=O)Cc1ccc(Cl)cc1)C2)c1ccc(Cl)c(Cl)c1` [Example 126, 3,4-dichloro-N-{6-[2-(4-chloro-phenyl)-acetyl]-5,6,7,8-tetrahydro-pyrido[4,3-d]pyrimidin-2-yl}-benzamide], 70.
`CCCC(=O)Nc1ncc2c(n1)CCC(NC(=O)c1ccc(Cc3ccccc3)o1)C2` (stereo not shown) [Example 133, 5-benzyl-furan-2-carboxylic acid (2-butyrylamino-5,6,7,8-tetrahydro-quinazolin-6-yl)-amide]: the BTX inhibition is reported as 39.
The result for `Cc1ccc(C(=O)Nc2ncc3c(n2)CCN(S(=O)(=O)c2cc(F)ccc2C)C3)cc1` [Example 107, N-[6-(5-fluoro-2-methyl-benzenesulfonyl)-5,6,7,8-tetrahydro-pyrido[4,3-d]pyrimidin-2-yl]-4-methyl-benzamide] reads 73.
The result for `COc1ccccc1C(=O)Nc1ncc2c(n1)CCN(C(=O)COCc1ccccc1)C2` [Example 195, N-[6-(2-benzyloxy-acetyl)-5,6,7,8-tetrahydro-pyrido[4,3-d]pyrimidin-2-yl]-2-methoxy-benzamide] reads 35; that for `O=C(Nc1ncc2c(n1)CCN(S(=O)(=O)c1ccc(Cl)cc1)C2)c1ccc(Cl)c(Cl)c1` [Example 71, 3,4-dichloro-N-[6-(4-chloro-benzenesulfonyl)-5,6,7,8-tetrahydro-pyrido[4,3-d]pyrimidin-2-yl]-benzamide], 69; that for `CCCCCC(=O)NC1CCc2nc(NC(=O)c3ccc(F)cc3)ncc2C1` (stereo not shown) [Example 128, 4-fluoro-N-(6-hexanoylamino-5,6,7,8-tetrahydro-quinazolin-2-yl)-benzamide], 33.

The values above are taken from US20090176811A1, “Substituted 5,6,7,8-Tetrahydro-pyrido[4,3-d]pyrimidine-2-yl Compounds and 5,6,7,8-Tetrahydro-quinazoline-2-yl Compounds” (GRUENENTHAL GmbH, priority 2004, published 2009).
